Experimental data: PubChem BioAssay AID248 (DTP/NCI, 2004)
Where “and” joins values, the source holds several entries; their conditions need not be identical. Equal entries are not always repeated. Inconclusive results and toxic doses are left out. Cut-off read from the data, not from the text of the source: active = T/C of 150% or more; inactive = T/C below 125%.

System: L1210 leukemia ip in BDF1 mice, survival T/C
Assay: NCI In Vivo Anticancer Drug Screen. Data for tumor model L1210 Leukemia (intraperitoneal) in B6D2F1 (BDF1) mice
Conditions: endpoint: mean survival time, higher = longer survival
How it was run: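 Mice bearing the transplanted tumor received compound or vehicle. Survival of the treated group was divided by that of the vehicle-treated control group to give the ratio.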

[1] = dose: 100.0 mg/kg/injection, schedule: Q01DX009 (ip), vehicle: saline
[2] = dose: 200.0 mg/kg/injection, schedule: Q01DX009 (ip), vehicle: saline
[3] = dose: 400.0 mg/kg/injection, schedule: Q01DX009 (ip), vehicle: saline
[4] = dose: 100.0 mg/kg/injection, schedule: Q01DX009 (ip), vehicle: Klucel (hydroxypropylcellulose) (HPC)
[5] = dose: 200.0 mg/kg/injection, schedule: Q01DX009 (ip), vehicle: Klucel (hydroxypropylcellulose) (HPC)
[6] = dose: 400.0 mg/kg/injection, schedule: Q01DX009 (ip), vehicle: Klucel (hydroxypropylcellulose) (HPC)
[7] = dose: 100.0 mg/kg/injection, schedule: Q04DX003 (ip), vehicle: Klucel (hydroxypropylcellulose) (HPC)
[8] = dose: 200.0 mg/kg/injection, schedule: Q04DX003 (ip), vehicle: Klucel (hydroxypropylcellulose) (HPC)
[9] = dose: 400.0 mg/kg/injection, schedule: Q04DX003 (ip), vehicle: Klucel (hydroxypropylcellulose) (HPC)
[10] = dose: 100.0 mg/kg/injection, schedule: Q01DX001 (ip), vehicle: saline
[11] = dose: 200.0 mg/kg/injection, schedule: Q01DX001 (ip), vehicle: saline
[12] = dose: 400.0 mg/kg/injection, schedule: Q01DX001 (ip), vehicle: saline
[13] = dose: 50.0 mg/kg/injection, schedule: Q01DX009 (ip), vehicle: Klucel (hydroxypropylcellulose) (HPC)
[14] = dose: 12.5 mg/kg/injection, schedule: Q01DX009 (ip), vehicle: saline
[15] = dose: 50.0 mg/kg/injection, schedule: Q01DX001 (ip), vehicle: saline
[16] = dose: 100.0 mg/kg/injection, schedule: Q01DX001 (ip), vehicle: carboxymethylcellulose (CMC)
[17] = dose: 200.0 mg/kg/injection, schedule: Q01DX001 (ip), vehicle: carboxymethylcellulose (CMC)
[18] = dose: 400.0 mg/kg/injection, schedule: Q01DX001 (ip), vehicle: carboxymethylcellulose (CMC)
[19] = dose: 100.0 mg/kg/injection, schedule: Q01DX001 (ip), vehicle: Klucel (hydroxypropylcellulose) (HPC)
[20] = dose: 200.0 mg/kg/injection, schedule: Q01DX001 (ip), vehicle: Klucel (hydroxypropylcellulose) (HPC)
[21] = dose: 400.0 mg/kg/injection, schedule: Q01DX001 (ip), vehicle: Klucel (hydroxypropylcellulose) (HPC)

Measured: T/C

Cc1ccc([N+](=O)[O-])cc1NC(=O)OCCOc1ccccc1
inactive: [1] 90 % of control | [2] 103 % of control | [3] 92 % of control

COc1cc(OC)c(NC(=O)C2CC2)cc1Cl
inactive: [4] 110 % of control | [5] 104 % of control | [6] 110 % of control

CCOC(=O)/C(Cc1cc[n+]([O-])c2ccccc12)=N/O
inactive: [4] 91 % of control | [7] 92 % of control | [5] 97 % of control | [8] 90 % of control | [6] 100 % of control | [9] 100 % of control

CC1CN(C=O)CCN1C=O (configuration not stated)
inactive: [10] 98 % of control | [11] 98 % of control | [12] 101 % of control

O=C(O)c1cccc(OCCCOc2ccccc2)c1
inactive: [4] 92 % of control | [5] 90 % of control | [6] 95 % of control

C/C=C/C=C\COC(=O)C1CC1
inactive: dose: 100.0 mg/kg/injection, schedule: Q04DX002 (ip), vehicle: saline 116 % of control | dose: 200.0 mg/kg/injection, schedule: Q04DX002 (ip), vehicle: saline 121 % of control

CC1(c2cccc3ccccc23)NC(=O)c2ccccc2N1 (configuration not stated)
inactive: [13] 98 % of control | [4] 103 % of control | dose: 150.0 mg/kg/injection, schedule: Q01DX009 (ip), vehicle: Klucel (hydroxypropylcellulose) (HPC) 101 % of control

CN(C)CCC(=O)c1ccccc1
inactive: [14] 101 % of control | dose: 25.0 mg/kg/injection, schedule: Q01DX009 (ip), vehicle: saline 101 % of control | dose: 25.0 mg/kg/injection, schedule: Q04DX003 (ip), vehicle: saline 105 % of control | [15] 103 % of control | dose: 50.0 mg/kg/injection, schedule: Q01DX009 (ip), vehicle: saline 98 % of control | dose: 50.0 mg/kg/injection, schedule: Q04DX003 (ip), vehicle: saline 101 % of control | [10] 103 % of control | dose: 100.0 mg/kg/injection, schedule: Q04DX003 (ip), vehicle: saline 100 % of control

CCOC(=O)C(CCc1ccccn1)C(C)=O (configuration not stated)
inactive: [1] 97 % of control | [2] 107 % of control | [3] 102 % of control

CCCOc1ccc(C(=O)C(=O)c2ccccc2)cc1
inactive: [16] 97 % of control | [17] 100 % of control | [18] 97 % of control

Cn1c(=O)cc(CCl)c2ccccc21
inactive: dose: 100.0 mg/kg/injection, schedule: Q01DX001 (ip), vehicle: other 105 % of control

C[N+]12CN3CN(CN(C3)C1)C2
inactive: dose: 50.0 mg/kg/injection, schedule: Q01DX001 (ip), vehicle: carboxymethylcellulose (CMC) 104 % of control | [16] 106 % of control | [10] 100 % of control | [1] 110 % of control | [17] 101 % of control | [11] 91 % of control | [2] 114 % of control | [18] 98 % of control | [12] 96 % of control | [3] 105 % of control

COc1cc(N(C)C)c(OC)cc1C=O
inactive: [4] 103 % of control | [7] 97 % of control | [5] 105 % of control | [8] 95 % of control | [9] 95 % of control

CN1CCN(CCNC(c2ccccc2)C(O)c2ccccc2)CC1 (configuration not stated)
inactive: [7] 97 % of control

NC(=O)C[n+]1ccccc1
inactive: [10] 106 % of control | [11] 98 % of control | [12] 97 % of control

N#Cc1cccc(NC(=O)COc2cccc(Cl)c2)c1
inactive: [19] 94 % of control | [20] 87 % of control | [21] 90 % of control

Cc1ccc(S(=O)(=O)Nc2ccc(C(=O)Cl)cc2)cc1
inactive: dose: 100.0 mg/kg/injection, schedule: Q04DX003 (ip), vehicle: gum acacia 95 % of control | dose: 200.0 mg/kg/injection, schedule: Q04DX003 (ip), vehicle: gum acacia 106 % of control | dose: 400.0 mg/kg/injection, schedule: Q04DX003 (ip), vehicle: gum acacia 90 % of control

O=C(C[n+]1ccccc1)c1cn(Cc2ccccc2)c2ccccc12
inactive: dose: 75.0 mg/kg/injection, schedule: Q01DX001 (ip), vehicle: other 98 % of control | dose: 150.0 mg/kg/injection, schedule: Q01DX001 (ip), vehicle: other 97 % of control

O=S1(=O)Oc2c(Cl)cc(Cl)cc2S(=O)(=O)Oc2c(Cl)cc(Cl)cc21
inactive: [19] 105 % of control | [20] 105 % of control | [21] 98 % of control

Cc1ncc(O)c(CO)c1O
inactive: [15] 108 % of control | [10] 96 % of control | [11] 96 % of control | [12] 96 % of control

CN(C)c1ccc(C(O)C(N)=O)cc1 (configuration not stated)
inactive: dose: 6.25 mg/kg/injection, schedule: Q01DX001 (ip), vehicle: saline 103 % of control | dose: 12.5 mg/kg/injection, schedule: Q01DX001 (ip), vehicle: saline 94 % of control | dose: 25.0 mg/kg/injection, schedule: Q01DX001 (ip), vehicle: saline 97 % of control

CC1(c2cccs2)NC(=O)N(Cl)C1=O (configuration not stated)
inactive: dose: 25.0 mg/kg/injection, schedule: Q01DX009 (ip), vehicle: saline with Tween-80 93 % of control | dose: 25.0 mg/kg/injection, schedule: Q04DX003 (ip), vehicle: saline with Tween-80 99 % of control | dose: 50.0 mg/kg/injection, schedule: Q01DX009 (ip), vehicle: saline with Tween-80 96 % of control | dose: 50.0 mg/kg/injection, schedule: Q04DX003 (ip), vehicle: saline with Tween-80 99 % of control | dose: 100.0 mg/kg/injection, schedule: Q01DX009 (ip), vehicle: saline with Tween-80 105 % of control | dose: 100.0 mg/kg/injection, schedule: Q04DX003 (ip), vehicle: saline with Tween-80 100 % of control and 91 % of control | dose: 200.0 mg/kg/injection, schedule: Q01DX009 (ip), vehicle: saline with Tween-80 94 % of control

CC(C)=CC(=O)OCC[N+](C)(C)C
inactive: dose: 3.12 mg/kg/injection, schedule: Q01DX009 (ip), vehicle: saline 104 % of control | dose: 6.25 mg/kg/injection, schedule: Q01DX009 (ip), vehicle: saline 98 % of control | [14] 102 % of control and 109 % of control

CC(C)c1oc(=O)cc2c1C(O)C1OC(=O)C3(C)C(O)C4OC4C2(C)C13 (configuration not stated)
inactive: dose: 25.0 mg/kg/injection, schedule: Q01DX009 (ip), vehicle: Klucel (hydroxypropylcellulose) (HPC) 109 % of control | [13] 116 % of control | [4] 106 % of control and 88 % of control

Cc1ccc(S(=O)(=O)N=S2CCCC2)cc1
inactive: [4] 97 % of control | [5] 102 % of control | [6] 102 % of control

COc1ccc2c(c1C)CCC1(CO)C(C(C)=O)=CCC21 (configuration not stated)
inactive: [4] 105 % of control | [7] 92 % of control | [5] 110 % of control | [8] 97 % of control | [6] 100 % of control | [9] 102 % of control
